What was measured:
[1] = test system: Splenocytes; experiment: IL-2 bioactivity study (splenocyte stimulation, IFN-γ ELISA); type: cell-based, B6 mouse; settings: IFN-γ production correlated with IL-2 concentration
Procedure: Splenocytes were isolated from a B6 mouse and 1×10^6 cells were added in 500 μL T cell media to each well of a 24 well plate previously coated with 10 μg/mL anti-CD3 (coated overnight in 1×PBS at 4° C.) and 5 μg/mL soluble anti-CD28 (BD Biosciences). The media from release studies was filtered through a 0.22-μm syringe filter (Whatman) and 500 μL was added to the wells. Additionally all wells contained 5 μg/mL, soluble anti-CD28 (BD Biosciences). […] Cells were incubated at 37° C. and cellular stimulation was assessed after 72 hours using an IFN-γ ELISA (BD Biosciences).

[2] = test system: B16 melanomas; experiment: In vivo subcutaneous tumor studies, intratumoral nanolipogel therapy; design: species or system B6 albino mice
Procedure: B16-F10 cells (ATCC) were cultured in DMEM (Gibco) and suspended at 2×10^6 cells/mL in 1×PBS (kept on ice) directly prior to injection. For subcutaneous tumor studies, female 6-8 week-old B6 albino mice were sedated with AErrane (isofluorane; Baxter) and the right hind flank was shaved prior to a subcutaneous injection of 50 μL of the cellular suspension. Tumors were monitored and treatment began when the average tumor area reached approximately 5.5 mm^2 (8-10 days after B16 injection; mice were rearranged to normalize tumor sizes across groups).
Observers were blinded for tumor area and survival studies. […] Five mice per group were euthanized at different timepoints and tumors were extracted and weighed.

[3] = test system: B16 lung metastases; experiment: Metastatic B16 lung tumor study, intravenous nanolipogel therapy; type: in vivo, B6 mice; settings: two weeks after initial treatment
Procedure: Metastatic B16 melanomas were established in female 6-8 week old B6 mice by intravenous (tail vein) administration of 50 μL of B16 cellular suspension as described by Gorelik, et al. Nat Med 7, 1118-1122 (2001). […] After sacrifice, the chest cavity was exposed and the lungs perfused by making a small incision in the right atrium and injecting 10 mL of cold PBS into the right ventricle. Lung metastates were counted by blinded observers who recorded dark circular masses ranging from 0.1-3 mm as unique tumors.

[4] = cited from earlier work

Cc1cccc(-c2[nH]c(C(C)(C)C)nc2-c2ccc3c(c2)OCO3)n1.Cl [SB, 2-(5-benzo[1,3]dioxol-5-yl-2-tert-butyl-3H-imidazol-4-yl)-6-methylpyridine hydrochloride]
bioactivity after lipogel incorporation [1]: unaffected | survival ([2]; intratumoral): did not improve survival | tumor growth (tumor area versus time) ([2]; weekly intratumoral administration): failed to delay tumor growth | number of lung tumors [3]: failed to reduce the number of lung tumors | Log P [4]: 4.33

Reference: patent US11173119B2 (YALE UNIVERSITY, priority 2012, dated 2021)
